# Results: the NIST ThermoML archive (doi:10.1021/je900113f)
# ± gives the expanded uncertainty stated by the source.
# Conditions: 101.33 kPa, Liquid, Vibrating wire viscometry
structure (smiles),measurement,setting,value
CC(C)CCCCCCCOC(=O)c1ccccc1C(=O)OCCCCCCCC(C)C,viscosity,283.03 K,264.88 ± 8.6 mPa·s
same,viscosity,288.23 K,176.35 ± 4.9 mPa·s
same,viscosity,288.36 K,173.92 ± 4.9 mPa·s
same,viscosity,293.23 K,122.34 ± 2.6 mPa·s
same,viscosity,293.93 K,116.51 ± 2.4 mPa·s
same,viscosity,298.13 K,87.76 ± 1.6 mPa·s
same,viscosity,298.58 K,85.3 ± 1.5 mPa·s
same,viscosity,303.18 K,64.51 ± 1.1 mPa·s
same,viscosity,303.5 K,63.25 ± 1 mPa·s
